Results reported in patent publication US10596259B2, “Tumor radiosensitization with monomethyl auristatin E (MMAE) and derivatives thereof” (The Regents of the University of California, priority 2015, dated 2020).
Where two headings read alike, the source gives them in different places.

Experiments:
Test in all cases: Alamar Blue cell viability assay
Type in all cases: cell-based, Human
CAL-27 cells = conditions: 72 hours
Procedure: (§1) Alamar Blue (resazurin) was added to the cells and allowed to incubate for 2 hrs at 37° C. Plates were analyzed using a plate reader with fluorescence measured at 560 nm.

SCC-61 cells = conditions: 72 hours
Procedure: as §1

SQ-9G cells = conditions: 72 hours
Procedure: as §1

SCC-35 cells = conditions: 72 hours
Procedure: as §1

779E cells = conditions: Homo sapiens, 72 h
Procedure: (§2) Cells were plated in 96 well plates at varying cell densities and exposed to range of concentrations of MMAE or paclitaxel for 72 hrs. Alamar Blue (also known as resazurin) was added to the cells and allowed to incubate for 2 hrs at 37° C. Plates were analyzed using a plate reader with fluorescence measured at 560 nm. For irradiated cells, cells were treated with MMAE overnight followed by 6 Gy.
(§3) Cells were plated in 96-well plates and exposed to MMAE or paclitaxel for 72 hours and analyzed at 560 nm. For irradiated cells, cells were treated with MMAE overnight followed by 6 Gy.

PANC-1 cells = conditions: Homo sapiens, PANC-1, 72 h, read-out: IC50
Procedure: as §2, §3

HCT-116 cells = conditions: Homo sapiens, HCT-116, 72 h, read-out: IC50
Procedure: Alamar Blue (also known as resazurin) was added to the cells and allowed to incubate for 2 hrs at 37° C. Plates were analyzed using a plate reader with fluorescence measured at 560 nm. For irradiated cells, cells were treated with MMAE overnight followed by 6 Gy.
as §1, §3

IC50 (PANC-1 cells; 72 hours exposure (Example 3)) | IC50 (PANC-1 cells; 72 hours exposure) | IC50 (HCT-116 cells; 72 hours exposure (Example 3)) | IC50 (HCT-116 cells; 72 hours exposure) | SMILES | IC50 (CAL-27 cells) | IC50 (SCC-61 cells) | IC50 (SQ-9G cells) | IC50 (SCC-35 cells) | IC50 (779E cells; 72 hours exposure) | IC50 (779E cells; 72 hours exposure (Example 3))
 |  |  |  | N.N.[Cl][Pt][Cl] [cisplatin] | 5 µM | 10 µM | 13 µM | 30 µM |  | 
15.1 nM | 15.1 nM | 10 nM | 10 nM | CC(=O)O[C@H]1C(=O)[C@@]2(C)[C@H]([C@H](OC(=O)c3ccccc3)[C@]3(O)C[C@H](OC(=O)[C@H](O)[C@@H](NC(=O)c4ccccc4)c4ccccc4)C(C)=C1C3(C)C)[C@]1(OC(C)=O)CO[C@@H]1C[C@@H]2O [paclitaxel] |  |  |  |  | 52 nM | 52 nM
